Measured values as given in patent US9809587B2, “Pesticidally active heterocyclic derivatives with sulphur containing substituents” (Syngenta Participations AG, priority 2014, dated 2017).

Legend:
Type in all cases: in vivo
[1] = test system: Tetranychus urticae (Two-Spotted Spider Mite); test: Tetranychus urticae (two-spotted spider mite), sprayed bean leaf discs; conditions: foliar, 192 h, application rate of 200 ppm, mixed population (mobile stages) on bean leaf discs, 8 days after infestation
Protocol: Example B9: Tetranychus urticae (Two-Spotted Spider Mite)
Bean leaf discs on agar in 24-well microtiter plates were sprayed with aqueous test solutions prepared from 10′000 ppm DMSO stock solutions. After drying the leaf discs were infested with a mite population of mixed ages. The samples were assessed for mortality on mixed population (mobile stages) 8 days after infestation.

[2] = test system: Thrips tabaci (Onion Thrips); test: Thrips tabaci (onion thrips), sprayed sunflower leaf discs; conditions: foliar, 144 h, application rate of 200 ppm, mixed ages on sunflower leaf discs, 6 days after infestation
Protocol: Example B10: Thrips tabaci (Onion Thrips)
(§1) Sunflower leaf discs were placed on agar in 24-well microtiter plates and sprayed with aqueous test solutions prepared from 10′000 ppm DMSO stock solutions. After drying the leaf discs were infested with a thrips population of mixed ages. The samples were assessed for mortality 6 days after infestation.

[3] = test system: Frankliniella occidentalis (Western Flower Thrips); test: Frankliniella occidentalis (western flower thrips), sprayed sunflower leaf discs; conditions: foliar, 168 h, application rate of 200 ppm, mixed ages on sunflower leaf discs, 7 days after infestation
Protocol: Example B11: Frankliniella occidentalis (Western Flower Thrips)
as §1, with “[…]” for “10′000 ppm”, “Frankliniella” for “thrips”, “7” for “6”

[4] = test system: Plutella xylostella (Diamond Back Moth); test: Plutella xylostella (diamond back moth), treated artificial diet; conditions: 120 h, application rate of 200 ppm, L2 larvae on artificial diet, 5 days after infestation, read-out: effect in at least one of the two categories (mortality or growth inhibition)
In short: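 Artificial diet treated with aqueous dilutions of DMSO stocks (10′000 ppm stock), dried, then infested with 10-15 L2 larvae per well. Mortality and growth inhibition assessed versus untreated controls 5 days after infestation.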

[5] = test system: Diabrotica balteata (Corn Root Worm); test: Diabrotica balteata (corn root worm), sprayed maize sprouts; conditions: 96 h, application rate of 200 ppm, L2 larvae on maize sprouts, 4 days after infestation
Protocol: Example B2: Diabrotica balteata (Corn Root Worm)
Maize sprouts, placed on an agar layer in 24-well microtiter plates were treated with aqueous test solutions prepared from 10′000 ppm DMSO stock solutions by spraying. After drying, the plates were infested with L2 larvae (6 to 10 per well). The samples were assessed for mortality and growth inhibition in comparison to untreated samples 4 days after infestation.

[6] = test system: Bemisia tabaci (Cotton White Fly); test: Bemisia tabaci (cotton white fly), sprayed cotton leaf discs; conditions: foliar, 144 h, application rate of 200 ppm, adult white flies on cotton leaf discs, 6 days after incubation
Protocol: Example B1: Bemisia tabaci (Cotton White Fly)
Cotton leaf discs were placed on agar in 24-well microtiter plates and sprayed with aqueous test solutions prepared from 10′000 ppm DMSO stock solutions. After drying the leaf discs were infested with adult white flies. The samples were checked for mortality 6 days after incubation.

[7] = test system: Spodoptera littoralis (Egyqptian Cotton Leaf Worm); test: Spodoptera littoralis (Egyptian cotton leaf worm), sprayed cotton leaf discs; conditions: foliar, 72 h, application rate of 200 ppm, L1 larvae on cotton leaf discs, 3 days after infestation
In short: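 Cotton leaf discs on agar were sprayed with aqueous dilutions made from 10′000 ppm DMSO stocks, then infested after drying with five L1 larvae. Mortality, anti-feedant effect and growth inhibition were scored against untreated discs 3 days after infestation. Control means at least one of these exceeds the untreated sample.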

[8] = test system: Spodoptera littoralis (Egyqptian Cotton Leaf Worm); test: Spodoptera littoralis (Egyptian cotton leaf worm), compound in agar taken up by lettuce roots; conditions: 144 h, test rate of 12.5 ppm, uptake by lettuce roots from agar, 6 days after infestation, read-out: effect in at least one of the three categories (mortality, anti-feedancy, or growth inhibition)
In short: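 Compound mixed into agar from a 10′000 ppm DMSO stock and taken up over 7 days by lettuce roots; cut leaves then infested with Spodoptera eggs. Mortality, anti-feedant effect and growth inhibition scored against untreated samples 6 days after infestation.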

[9] = test system: Euschistus heros (Neotropical Brown Stink Bug); test: Euschistus heros (neotropical brown stink bug), sprayed soybean leaf; conditions: 120 h, application rate of 200 ppm, N-2 nymphs on soybean leaf, 5 days after infestation
Protocol: Example B3: Euschistus heros (Neotropical Brown Stink Bug)
Soybean leaf on agar in 24-well microtiter plates were sprayed with aqueous test solutions prepared from 10′000 ppm DMSO stock solutions. After drying the leaf were infested with N-2 nymphs. The samples were assessed for mortality in comparison to untreated samples 5 days after infestation.

[10] = test system: Myzus persicae (Green Peach Aphid); test: Myzus persicae (green peach aphid), sprayed sunflower leaf discs; conditions: foliar, 144 h, application rate of 200 ppm, mixed ages on sunflower leaf discs, 6 days after infestation
Protocol: Example B4: Myzus persicae (Green Peach Aphid)
Sunflower leaf discs were placed on agar in a 24-well microtiter plate and sprayed with aqueous test solutions prepared from 10′000 ppm DMSO stock solutions. After drying, the leaf discs were infested with an aphid population of mixed ages. The samples were assessed for mortality 6 days after infestation.

[11] = test system: Aedes aegypti (Yellow Fever Mosquito); test: Activity against Aedes aegypti (yellow fever mosquito), dried deposits in tissue culture plates; conditions: application rate of 200 ppm in ethanol, adult females, after 48 h
Protocol: Example B12: Activity Against Aedes aegypti (Yellow Fever Mosquito)
Test solutions, at an application rate of 200 ppm in ethanol, were applied to 12-well tissue culture plates. Once the deposits were dry, five, two to five days old adult female Aedes aegypti were added to each well, and sustained with a 10% sucrose solution in a cotton wool plug. Assessment of knockdown was made one hour after introduction, and mortality was assessed at 24 and 48 hours after introduction.
The following compounds gave at least 80% control of Aedes aegypti after 48 h: […]

[12] = test system: Myzus persicae (Green Peach Aphid); test: Myzus persicae (green peach aphid), roots of pea seedlings in test solution; conditions: 144 h, test rate of 24 ppm, roots of infested pea seedlings in test solution, 6 days
Protocol: Example B5: Myzus persicae (Green Peach Aphid)
Roots of pea seedlings infested with an aphid population of mixed ages were placed directly in the aqueous test solutions prepared from 10′000 DMSO stock solutions. The samples were assessed for mortality 6 days after placing seedlings in test solutions.

CCS(=O)(=O)c1cc(-c2cc(C(F)(F)F)ccn2)cnc1-c1nc2cc(C(F)(F)F)ncc2n1C [Compound P21]
≥ 80%: mortality at 200 ppm [1] | mortality at 200 ppm [2] | mortality at 200 ppm [3] | percent effect (mortality or growth inhibition) at 200 ppm [4] | mortality at 200 ppm [5] | mortality at 200 ppm [6] | percent control (mortality, anti-feedant effect or growth inhibition) at 200 ppm [7] | percent control (mortality, anti-feedancy or growth inhibition) at 12.5 ppm [8] | mortality at 200 ppm [9] | mortality at 200 ppm [10] | pest or weed control at 200 ppm [11]

CCS(=O)(=O)c1cc(-c2ncc(C(F)(F)F)cn2)cnc1-c1nc2cc(C(F)(F)F)ncc2n1C [Compound P25]
≥ 80%: mortality at 200 ppm [1] | mortality at 200 ppm [2] | mortality at 200 ppm [3] | percent effect (mortality or growth inhibition) at 200 ppm [4] | mortality at 200 ppm [5] | mortality at 200 ppm [6] | percent control (mortality, anti-feedant effect or growth inhibition) at 200 ppm [7] | percent control (mortality, anti-feedancy or growth inhibition) at 12.5 ppm [8] | mortality at 200 ppm [9] | mortality at 200 ppm [10] | pest or weed control at 200 ppm [11]

CCS(=O)(=O)c1cc(-c2ncccn2)cnc1-c1nc2cc(C(F)(F)F)ncc2n1C [Compound P27]
≥ 80%: mortality at 200 ppm [1] | mortality at 24 ppm [12] | mortality at 200 ppm [3] | percent effect (mortality or growth inhibition) at 200 ppm [4] | mortality at 200 ppm [5] | mortality at 200 ppm [6] | percent control (mortality, anti-feedant effect or growth inhibition) at 200 ppm [7] | percent control (mortality, anti-feedancy or growth inhibition) at 12.5 ppm [8] | mortality at 200 ppm [9] | mortality at 200 ppm [10]

CCS(=O)(=O)c1cc(-n2cnc(C(F)(F)F)n2)cnc1-c1nc2cc(C(F)(F)F)ncc2n1C [Compound P110]
≥ 80%: mortality at 200 ppm [1] | mortality at 200 ppm [2] | mortality at 24 ppm [12] | mortality at 200 ppm [3] | percent effect (mortality or growth inhibition) at 200 ppm [4] | mortality at 200 ppm [5] | percent control (mortality, anti-feedant effect or growth inhibition) at 200 ppm [7] | mortality at 200 ppm [9] | mortality at 200 ppm [10] | pest or weed control at 200 ppm [11]
